Assay results reported in ChEMBL document CHEMBL1149373, “Computer-aided design of non-nucleoside inhibitors of HIV-1 reverse transcriptase” (Bioorg Med Chem Lett, 2006).
pEC50: −log10 of the molar value.

What was measured:
MT2 = assay: Cytotoxicity against MT2 cells; format: functional; conditions: Homo sapiens
[1] = test system: Human immunodeficiency virus 1; assay: Antiviral activity against wild-type HIV1 in MT2 cells by MTT assay; format: functional, organism-based; conditions: for pEC50: Human immunodeficiency virus 1, MT2, read-out: EC50

SMILES	CC50 (MT2) [µM]	EC50 [1]	pEC50 [1]
CC(C)=CCOc1cc(Nc2ccccn2)ccc1C#N	0.29	Not Active	–
CC(C)=CCOc1cc(Nc2nccc(N)n2)ccc1Cl	0.5	–	–
CC(C)=CCOc1cc(Nc2ncccn2)ccc1C#N	< 0.2	Not Active	–
CCc1ccc(Nc2nccs2)cc1OCC=C(C)C	31	–	5.30
CC(C)=CCOc1cc(Nc2nccs2)ccc1C	17	–	5.52
CC(C)=CCOc1cc(Nc2nccc(C(F)(F)F)n2)ccc1Cl	2.5	–	7.19
CCCc1ccc(Nc2nccs2)cc1OCC=C(C)C	23	–	4.64
CC(C)=CCOc1cc(Nc2ccccn2)ccc1C	35	Not Active	–
CC(C)=CCOc1cc(Nc2nccs2)ccc1C(C)C	31	Not Active	–
CC(C)=CCOc1cc(Nc2ncccn2)ccc1Cl	2.5	–	–
CC(C)=CCOc1cccc(Nc2ncccn2)c1	> 100	–	4.52
CC(C)=CCOc1cc(Nc2ncccn2)ccc1C	78	–	5.55
CC(C)=CCOc1cc(Nc2nccs2)ccc1Cl	26	–	6.52
CC(C)=CCOc1cc(Nc2nccc(C)n2)ccc1Cl	< 0.2	Not Active	–
CC(C)=CCOc1cccc(Nc2nccs2)c1	23	–	5.00
COc1ccc(Nc2nccs2)cc1OCC=C(C)C	42	–	5.42
COc1ccnc(Nc2ccc(Cl)c(OCC=C(C)C)c2)n1	9	–	–
CC(C)=CCOc1cc(Nc2nccs2)ccc1C#N	0.5	–	6.68
CC(C)=CCOc1cc(Nc2ccccn2)ccc1Cl	15	–	–
CSc1ccnc(Nc2ccc(Cl)c(OCC=C(C)C)c2)n1	2.8	–	–
Cc1cc(C#N)cc(C)c1Oc1nc(Nc2ccc(C#N)cc2)nc(N)c1Br [ETRAVIRINE]	> 1	–	> 8.70
Cc1ccnc2c1NC(=O)c1cccnc1N2C1CC1 [NEVIRAPINE]	> 10	–	–
Cc1cn([C@H]2C=C[C@@H](CO)O2)c(=O)[nH]c1=O [STAVUDINE]	> 100	–	5.52
CC(C)=CCOc1cc(NC(=S)c2ccoc2C)ccc1Cl [UC 781]	> 100	–	8.70
